Assay results from EP2433948A1, “Use of a new class of nucleotide sugar as antibiotic or cytostatic agent” (Max-Planck-Gesellschaft zur Förderung der Wissenschaften …, priority 2010, dated 2012).

Target: E. coli MurA (Escherichia coli, UniProt P0A749)
Assay: MurA activity/inhibition assay (phosphate release coupled to PNPase cleavage of fluorescent 7-methylguanosine)
Assay type: biochemical
Excerpt: • (a) MurA performs the first step of UDP-muramic acid biosynthesis. After sequential binding of UNAG and phosphoenolpyruvate, a tetrahedral intermediate is formed that yields enolpyruvyl-UNAG after cleavage of inorganic phosphate. UNAG-3P most likely mimics this tetrahedral intermediate and thereby inhibits MurA catalysis by a competitive binding mechanism. (b) Determination of the Ki of UNAG-3P for MurA. Enolpyruvyl-UNAG formation catalyzed by MurA from E. coli in presence of PEP and UNAG-3P and varying UNAG concentrations under steady state conditions. MurA enzyme kinetics were followed by coupling the reaction to phosphate dependent cleavage of fluorescent 7-methylguanosine by nucleoside phosphorylase resulting in a strong decrease of the fluorescence at 400 nm (λexc = 300 nm). The UNAG-3P concentrations for each saturation curve were 0 µM (●), 15 µM (□) and 30 µM (Δ). A Lineweaver-Burk plot is shown as inset.
The enolpyruvyl activity of E. coli MurA was monitored by coupling phosphate release to cleavage of fluorescent 7-methylguanosine (Sigma) by bacterial purine-nucleoside phosphorylase (PNPase) (Sigma). […] The reactions were monitored by the decrease in fluorescence at 400 nm with excitation set to 300 nm in a FluoroMax-3 spectrofluorometer (HORIBA Jobin Yvon) with excitation and emission bandwidths of 5 nm. […]

Chain of E. coli MurA (P0A749 whole entry): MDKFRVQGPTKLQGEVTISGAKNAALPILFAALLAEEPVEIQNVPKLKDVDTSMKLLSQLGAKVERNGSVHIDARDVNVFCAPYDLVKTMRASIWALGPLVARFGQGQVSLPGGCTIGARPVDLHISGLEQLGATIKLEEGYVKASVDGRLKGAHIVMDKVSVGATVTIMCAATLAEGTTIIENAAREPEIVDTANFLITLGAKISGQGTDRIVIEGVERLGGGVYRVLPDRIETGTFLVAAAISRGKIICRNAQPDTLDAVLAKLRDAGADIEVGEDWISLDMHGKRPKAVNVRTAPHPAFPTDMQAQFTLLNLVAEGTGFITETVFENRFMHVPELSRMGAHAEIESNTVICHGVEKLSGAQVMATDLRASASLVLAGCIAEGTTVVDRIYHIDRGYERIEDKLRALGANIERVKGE

With CC(=O)N[C@H]1[C@@H](OP(=O)(O)OP(=O)(O)OC[C@H]2O[C@@H](n3ccc(=O)[nH]c3=O)[C@H](O)[C@@H]2O)O[C@H](CO)[C@@H](O)[C@@H]1OP(=O)(O)O [UNAG-3P, Uridinediphosphate-2-N-acetyl-3-phosphate-glucosamine] the Ki was 7 µM.
